Two compounds from patent publication EP0534511A1, “HIV protease inhibitors useful for the treatment of aids” (MERCK & CO. INC., priority 1991, dated 1993) can be followed below.

The assay concerns the target T1, HIV protease (Human immunodeficiency virus type 1 group M subtype B, UniProt P04585).
T1 construct: the protease expressed in Eschericia coli; made in house; host or cells: Escherichia coli
The experiment in a line: Assay for Inhibition of Microbial Expressed Viral Protease. Format: biochemical. The settings on record: protease expressed in Eschericia coli; peptide substrate Val-Ser-Gln-Asn-(betanapthyl)Ala-Pro-Ile-Val 0.5 mg/mL; 50 mM Na acetate, pH 5.5, 30°C, 1 hour; HPLC; read-out: IC₅₀. The procedure:
Assay for Inhibition of Microbial Expressed Viral Protease
Inhibition studies of the reaction of the protease expressed in Eschericia coli with a peptide substrate [Val-Ser-Gln-Asn-(betanapthyl)Ala-Pro-Ile-Val, 0.5 mg/mL at the time the reaction is initiated] were in 50 mM Na acetate, pH 5.5, at 30°C for 1 hour. Various concentrations of inhibitor in 1.0 ul DMSO were added to 25 ul of the peptide solution in water. The reaction is initiated by the addition of 15 ul of 0.33 nM protease (0.11 ng) in a solution of 0.133 M Na acetate pH 5.5 and 0.26% bovine serum albumin. The reaction was quenched with 160 ul of 5% phosphoric acid. Products of the reaction were separated by HPLC (VYDAC wide pore 5 cm C-18 reverse phase, acetonitrile gradient, 0.1% phosphoric acid). The extent of inhibition of the reaction was determined from the peak heights of the products.

Regarding `CC(C)[C@H](C[C@H](O)[C@H](CC1CCCCC1)NC(=O)O[C@H]1CCOC1)C(=O)N[C@H]1c2ccccc2C[C@H]1O` [A, N-[(2R)-hydroxy-1(S)-indanyl]-5(S)-(3(S)-tetrahydrofuranyloxycarbonylamino)-4(S)-hydroxy-6-cyclohexyl-2(R)-isopropyl hexanamide], the IC50 is 0.37 nM.
For the compound `O=C(N[C@@H](CC1CCCCC1)[C@@H](O)C[C@@H](Cc1ccccc1)C(=O)N[C@H]1c2ccccc2C[C@H]1O)O[C@H]1CCOC1` [C, N-[(2R)-hydroxy-1(S)-indanyl]-5(S)-(3(S)-tetrahydrofuranyloxycarbonylamino)-4(S)-hydroxy-6-cyclohexyl-2(R)-phenylmethyl hexamamide], the IC50 is 0.04 nM.
